Experimental data reported in patent publication US4800199A, “3-[2-thiazoloamino]-8-oxo-7-substituted-5-thia-1-a zabicyclo-[4.2.0]oct-2-ene-2-carboxylic acid and salts thereof and diphenylmethyl esters thereof” (American Cyanamid Company, priority 1986, dated 1989).
Values after ≈ are worked out from the molar mass of the structure shown.

Assays:
Assay in all cases: In vitro antibacterial activity, Mueller-Hinton agar dilution
Assay type in all cases: cell-based
Acinetobacter CMC 83-89 = conditions: CMC8389, read-out: Minimal Inhibitory Concentration
Text: (§1) The results of this test on representative compounds of this invention appear in Table I.

Acinetobacter IO 83-49 = conditions: IO8349, read-out: Minimal Inhibitory Concentration
Text: as §1

[1] = system: Bacillus subtilis ATCC 6633; conditions: ATCC6633, read-out: Minimal Inhibitory Concentration
Text: as §1

[2] = system: Citrobacter diversis K83-24; conditions: K8324, read-out: Minimal Inhibitory Concentration
Text: as §1

[3] = system: Citrobacter freundii IO 83-13; conditions: IO8313, read-out: Minimal Inhibitory Concentration
Text: as §1

[4] = system: Enterobacter aerogenes IO 83-44; conditions: Klebsiella aerogenes, IO8344, read-out: Minimal Inhibitory Concentration
Text: as §1

[5] = system: Enterobacter cloacae CMC 84-4; conditions: CMC844, read-out: Minimal Inhibitory Concentration
Text: as §1

Enterococcus CMC 83-53 = conditions: CMC8353, read-out: Minimal Inhibitory Concentration
Text: as §1

Escherichia coli 311 = conditions: read-out: Minimal Inhibitory Concentration
Text: as §1

[6] = system: Escherichia coli ATCC 25922; conditions: ATCC25922, read-out: Minimal Inhibitory Concentration
Text: as §1

[7] = system: Escherichia coli CMC 84-11; conditions: CMC8411, read-out: Minimal Inhibitory Concentration
Text: as §1

[8] = system: Klebsiella oxytoca IO 83-1; conditions: IO831, read-out: Minimal Inhibitory Concentration
Text: as §1

Klebsiella pneumoniae AD = conditions: read-out: Minimal Inhibitory Concentration
Text: as §1

[9] = system: Klebsiella pneumoniae CMC 84-5; conditions: CMC845, read-out: Minimal Inhibitory Concentration
Text: as §1

[10] = system: Micrococcus lutea PC 1001; conditions: PC1001, read-out: Minimal Inhibitory Concentration
Text: as §1

[11] = system: Morganella morganii IO 83-18; conditions: IO8318, read-out: Minimal Inhibitory Concentration
Text: as §1

[12] = system: Proteus rettgheri IO 83-21; conditions: read-out: Minimal Inhibitory Concentration
Text: as §1

[13] = system: Providencia stuartii CMC 83-82; conditions: CMC8382, read-out: Minimal Inhibitory Concentration
Text: as §1

[14] = system: Pseudomonas aeruginosa 12-4-4; conditions: 1244, read-out: Minimal Inhibitory Concentration
Text: as §1

[15] = system: Pseudomonas aeruginosa ATCC 27853; conditions: ATCC27853, read-out: Minimal Inhibitory Concentration
Text: as §1

[16] = system: Pseudonmonas aeruginosa CMC 83-19; conditions: read-out: Minimal Inhibitory Concentration
Text: as §1

[17] = system: Serratia marcescens CMC 83-27; conditions: CMC8327, read-out: Minimal Inhibitory Concentration
Text: as §1

Serratia marcescens F-35 = conditions: F35, read-out: Minimal Inhibitory Concentration
Text: as §1

[18] = system: Staphylococcus aureus ATCC 25923; conditions: ATCC25923, read-out: Minimal Inhibitory Concentration
Text: as §1

[19] = system: Staphylococcus aureus SSC 82-20; conditions: SSC8220, read-out: Minimal Inhibitory Concentration
Text: as §1

[20] = system: Staphylococcus aureus SSC 82-24; conditions: SSC8224, read-out: Minimal Inhibitory Concentration
Text: as §1

[21] = system: Staphylococcus aureus SSC 82-26; conditions: SSC8226, read-out: Minimal Inhibitory Concentration
Text: as §1

[22] = system: Staphylococcus aureus SSC 82-31; conditions: SSC8231, read-out: Minimal Inhibitory Concentration
Text: as §1

[23] = system: Staphylococcus aureus SSC 82-57; conditions: SSC8257, read-out: Minimal Inhibitory Concentration
Text: as §1

[24] = system: Staphylococcus epidermidis ATCC 12228; conditions: ATCC12228, read-out: Minimal Inhibitory Concentration
Text: as §1

[25] = system: Staphylococcus epidermidis CMC 83-133; conditions: CMC83133, read-out: Minimal Inhibitory Concentration
Text: as §1

[26] = system: Streptococcus faecalis ATCC 29212; conditions: Enterococcus faecalis, ATCC29212, read-out: Minimal Inhibitory Concentration
Text: as §1

Compound | MIC (Acinetobacter CMC 83-89) [µg/mL] | MIC (Acinetobacter IO 83-49) [µg/mL] | MIC [1] [µg/mL] | MIC [2] [µg/mL] | MIC [3] [µg/mL] | MIC [4] [µg/mL] | MIC [5] [µg/mL] | MIC (Enterococcus CMC 83-53) [µg/mL] | MIC (Escherichia coli 311) [µg/mL] | MIC [6] [µg/mL] | MIC [7] [µg/mL] | MIC [8] [µg/mL] | MIC (Klebsiella pneumoniae AD) [µg/mL] | MIC [9] [µg/mL] | MIC [10] [µg/mL] | MIC [11] [µg/mL] | MIC [12] [µg/mL] | MIC [13] [µg/mL] | MIC [14] [µg/mL] | MIC [15] [µg/mL] | further results
CC(=O)OCC1=C(C(=O)O)N2C(=O)[C@@H](Nc3nc(C(=O)O)cs3)[C@H]2SC1 [Example 7, (6R-trans)-3-[(Acetyloxy)methyl]-7-[(4-carboxy-2-thiazolyl)amino]-8-oxo-5-thia-1-azabicyclo[4.2.0]oct-2-ene-2-carboxylic acid] | > 128 | > 128 | 8 (≈ 20 µM) | > 128 | > 128 | > 128 | > 128 | > 128 | > 128 | > 128 | > 128 | > 128 | > 128 | > 128 | 16 (≈ 40.1 µM) | > 128 | 128 (≈ 320 µM) | > 128 | > 128 | > 128 | MIC [16]: > 128 µg/mL; MIC [17]: > 128 µg/mL; MIC (Serratia marcescens F-35): > 128 µg/mL; MIC [18]: 8 µg/mL (≈ 20 µM); MIC [19]: 16 µg/mL (≈ 40.1 µM); MIC [20]: > 128 µg/mL; MIC [21]: 8 µg/mL (≈ 20 µM); MIC [22]: 8 µg/mL (≈ 20 µM); MIC [23]: 128 µg/mL (≈ 320 µM); MIC [24]: 4 µg/mL (≈ 10 µM); MIC [25]: 2 µg/mL (≈ 5.01 µM); MIC [26]: > 128 µg/mL
CC(=O)OCC1=C(C(=O)O)N2C(=O)[C@@H](Nc3nc(C(=O)OCC(Cl)(Cl)Cl)cs3)[C@H]2SC1 [Example 9, (6R-trans)-3-[(Acetyloxy)methyl]-8-oxo-7-[[4-[(2,2,2-trichloroethoxy)carbonyl]-2-thiazolyl]amino]-5-thia-1-azabicyclo[4.2.0]oct-2-ene-2-carboxylic acid] | > 128 | > 128 | 0.5 (≈ 0.942 µM) | > 128 | > 128 | > 128 | > 128 | 64 (≈ 121 µM) | > 128 | > 128 | > 128 | > 128 | > 128 | > 128 | 1 (≈ 1.88 µM) | > 128 | 64 (≈ 121 µM) | > 128 | > 128 | > 128 | MIC [16]: > 128 µg/mL; MIC [17]: > 128 µg/mL; MIC (Serratia marcescens F-35): > 128 µg/mL; MIC [18]: 0.12 µg/mL (≈ 0.226 µM); MIC [19]: 0.25 µg/mL (≈ 0.471 µM); MIC [20]: > 128 µg/mL; MIC [21]: 0.12 µg/mL (≈ 0.226 µM); MIC [22]: ≤ 0.06 µg/mL; MIC [23]: 128 µg/mL (≈ 241 µM); MIC [24]: ≤ 0.06 µg/mL; MIC [25]: ≤ 0.06 µg/mL; MIC [26]: 16 µg/mL (≈ 30.1 µM)
CC(=O)OCC1=C(C(=O)O)N2C(=O)[C@@H](Nc3nc(C(=O)NCc4ccccc4)cs3)[C@H]2SC1 [Example 11, (6R-trans)-3-[(Acetyloxy)methyl]-8-oxo-7-[[4-[[(phenylmethyl)amino]carbonyl]-2-thiazolyl]amino]-5-thia-1-azabicyclo[4.2.0]oct-2-ene-2-carboxylic acid] | > 128 | > 128 | 8 (≈ 16.4 µM) | > 128 | > 128 | > 128 | > 128 | > 128 | > 128 | > 128 | > 128 | > 128 | > 128 | > 128 | 8 (≈ 16.4 µM) | > 128 | > 128 | > 128 | > 128 | > 128 | MIC [16]: > 128 µg/mL; MIC [17]: > 128 µg/mL; MIC (Serratia marcescens F-35): > 128 µg/mL; MIC [18]: 4 µg/mL (≈ 8.19 µM); MIC [19]: 8 µg/mL (≈ 16.4 µM); MIC [20]: > 128 µg/mL; MIC [21]: 4 µg/mL (≈ 8.19 µM); MIC [22]: 4 µg/mL (≈ 8.19 µM); MIC [23]: 128 µg/mL (≈ 262 µM); MIC [24]: 2 µg/mL (≈ 4.09 µM); MIC [25]: 2 µg/mL (≈ 4.09 µM); MIC [26]: > 128 µg/mL
CC(=O)OCC1=C(C(=O)O)N2C(=O)[C@@H](Nc3nc(C)cs3)[C@H]2SC1 [Example 12, (6R-trans)-3-[(Acetyloxy)methyl]-7-[(4-methyl-2-thiazolyl)amino]-8-oxo-5-thia-1-azabicyclo[4.2.0]oct-2-ene-2-carboxylic acid] | > 128 | > 128 | 1 (≈ 2.71 µM) | > 128 | > 128 | > 128 | > 128 | 128 (≈ 346 µM) | 64 (≈ 173 µM) | > 128 | > 128 | > 128 | 64 (≈ 173 µM) | 128 (≈ 346 µM) | 4 (≈ 10.8 µM) | > 128 | > 128 | > 128 | > 128 | > 128 | MIC [16]: > 128 µg/mL; MIC [17]: > 128 µg/mL; MIC (Serratia marcescens F-35): > 128 µg/mL; MIC [18]: 4 µg/mL (≈ 10.8 µM); MIC [19]: 4 µg/mL (≈ 10.8 µM); MIC [20]: 64 µg/mL (≈ 173 µM); MIC [21]: 4 µg/mL (≈ 10.8 µM); MIC [22]: 4 µg/mL (≈ 10.8 µM); MIC [23]: 128 µg/mL (≈ 346 µM); MIC [24]: 2 µg/mL (≈ 5.41 µM); MIC [25]: 2 µg/mL (≈ 5.41 µM); MIC [26]: 128 µg/mL (≈ 346 µM)
